ChEMBL document CHEMBL5712086, “Spatially clustered loci with multiple enhancers are frequent targets of HIV-1 integration” (Nat Commun, 2019)
The source made the active and inactive calls. The calls are words filed in the database; no cut-off is given here.

Legend:
[1] = system: CD4+ T cell; test: Effect on HIV-1 insertion biases in human CD+ T cells assessed as insertion rate per chromosome at 500 nM incubated for 6 hrs; format: functional, cell-based; details: Human immunodeficiency virus 1
[2] = system: CD4+ T cell; test: Effect on spatial localization of recurrent integration genes of HIV-1 in human CD+ T cells at 500 nM incubated for 6 hrs followed by infection for 72 hrs by 3D immuno-DNA FISH assay; format: functional, cell-based; details: Human immunodeficiency virus 1, time 78.0 hrs
[3] = system: CD4+ T cell; test: Effect on spatial localization of HIV-1 in human CD+ T cells at 500 nM incubated for 6 hrs followed by infection for 72 hrs by 3D immuno-DNA FISH assay; format: functional, cell-based; details: Human immunodeficiency virus 1, time 78.0 hrs
[4] = system: CD4+ T cell; test: Upregulation of protein-coding genes proximal to super enhancers in activated human CD+ T cells at 500 nM incubated for 6 hrs by transcriptional profiling relative to coding genes without SE; format: functional, cell-based
[5] = system: CD4+ T cell; test: Down regulation of protein-coding genes proximal to super enhancers in activated human CD+ T cells at 500 nM incubated for 6 hrs by transcriptional profiling relative to coding genes without SE; format: functional, cell-based
[6] = biological target: T1, Bromodomain and extra-terminal motif (BET) (Homo sapiens) (UniProt P25440+O60885+Q58F21+Q15059); details: CD4+ T cell, dose 500.0 nM, time 20.0 hrs
[7] = biological target: T1, Bromodomain and extra-terminal motif (BET) (Homo sapiens); details: CD4+ T cell, dose 500.0 nM, time 20.0 hrs; remark: listed apart in the source

## Cc1sc2c(c1C)C(c1ccc(Cl)cc1)=N[C@@H](CC(=O)OC(C)(C)C)c1nnc(C)n1-2
[1]
  Activity: inactive
[2]
  Activity: inactive
[3]
  Activity: inactive
[4]
  Activity: Active
[5]
  Activity: Active
[6]
  inhibition: Active
[7]
  inhibition: Active
